Patent US20230257396A1, “MACROCYCLES AND THEIR USE” (BLOSSOMHILL THERAPEUTICS, INC., priority 2020, published 2023)

Experiments:
Experiment in all cases: KINOMEscan kinase binding assay (Eurofins/DiscoveRx), % Ctrl
kinases [1] = target: T1, kinases (Homo sapiens, UniProt P07949, M918T)
T1 construct: purchased Eurofins/DiscoveRx; host or cells: E. coli BL21-derived host (T7 phage display) for most kinases; HEK-293 for the rest
How it was run: (§1)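 Competition binding: DNA- or phage-tagged kinases (T7 phage in E. coli BL21, or HEK-293-expressed) with immobilized biotinylated ligand beads and test compound, 1 h at room temperature. Bead-bound kinase eluted and quantified by qPCR; % Ctrl = (compound − positive control)/(negative control − positive control) ×100 at a single compound concentration.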

kinases [2] = target: T2, kinases (Homo sapiens, UniProt P36888, N841I)
T2 construct: purchased Eurofins/DiscoveRx; host or cells: E. coli BL21-derived host (T7 phage display) for most kinases; HEK-293 for the rest
T2 sequence (P36888 27-993 N841I): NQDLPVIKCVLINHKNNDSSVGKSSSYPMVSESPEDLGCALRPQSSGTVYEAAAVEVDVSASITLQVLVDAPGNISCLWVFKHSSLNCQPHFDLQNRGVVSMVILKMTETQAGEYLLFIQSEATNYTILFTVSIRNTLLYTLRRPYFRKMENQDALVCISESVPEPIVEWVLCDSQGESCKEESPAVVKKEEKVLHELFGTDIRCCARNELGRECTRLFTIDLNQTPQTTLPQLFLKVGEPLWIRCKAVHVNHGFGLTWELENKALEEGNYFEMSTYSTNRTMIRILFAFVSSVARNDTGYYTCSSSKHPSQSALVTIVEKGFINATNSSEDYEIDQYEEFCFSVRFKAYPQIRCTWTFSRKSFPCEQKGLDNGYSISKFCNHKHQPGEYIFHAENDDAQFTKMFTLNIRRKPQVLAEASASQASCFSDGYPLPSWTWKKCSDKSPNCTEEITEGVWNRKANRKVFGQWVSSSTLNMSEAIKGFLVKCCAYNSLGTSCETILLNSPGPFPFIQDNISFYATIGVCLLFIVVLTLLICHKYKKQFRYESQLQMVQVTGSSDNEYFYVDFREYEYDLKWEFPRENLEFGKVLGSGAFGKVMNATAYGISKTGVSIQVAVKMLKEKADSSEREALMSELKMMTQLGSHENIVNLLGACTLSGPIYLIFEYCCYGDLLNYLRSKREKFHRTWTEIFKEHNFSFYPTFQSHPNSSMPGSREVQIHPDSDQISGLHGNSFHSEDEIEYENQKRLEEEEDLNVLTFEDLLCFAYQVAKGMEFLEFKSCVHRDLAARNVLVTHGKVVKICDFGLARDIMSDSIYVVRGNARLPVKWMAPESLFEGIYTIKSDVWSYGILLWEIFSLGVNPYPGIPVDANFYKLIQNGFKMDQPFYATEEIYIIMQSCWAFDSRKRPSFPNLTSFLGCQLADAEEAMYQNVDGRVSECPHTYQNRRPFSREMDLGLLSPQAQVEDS
How it was run: as §1

kinases [3] = target: T3, kinases (Homo sapiens, UniProt P10721, T670I/V559D)
T3 construct: purchased Eurofins/DiscoveRx; host or cells: E. coli BL21-derived host (T7 phage display) for most kinases; HEK-293 for the rest
T3 sequence (P10721 26-976 V559D/T670I): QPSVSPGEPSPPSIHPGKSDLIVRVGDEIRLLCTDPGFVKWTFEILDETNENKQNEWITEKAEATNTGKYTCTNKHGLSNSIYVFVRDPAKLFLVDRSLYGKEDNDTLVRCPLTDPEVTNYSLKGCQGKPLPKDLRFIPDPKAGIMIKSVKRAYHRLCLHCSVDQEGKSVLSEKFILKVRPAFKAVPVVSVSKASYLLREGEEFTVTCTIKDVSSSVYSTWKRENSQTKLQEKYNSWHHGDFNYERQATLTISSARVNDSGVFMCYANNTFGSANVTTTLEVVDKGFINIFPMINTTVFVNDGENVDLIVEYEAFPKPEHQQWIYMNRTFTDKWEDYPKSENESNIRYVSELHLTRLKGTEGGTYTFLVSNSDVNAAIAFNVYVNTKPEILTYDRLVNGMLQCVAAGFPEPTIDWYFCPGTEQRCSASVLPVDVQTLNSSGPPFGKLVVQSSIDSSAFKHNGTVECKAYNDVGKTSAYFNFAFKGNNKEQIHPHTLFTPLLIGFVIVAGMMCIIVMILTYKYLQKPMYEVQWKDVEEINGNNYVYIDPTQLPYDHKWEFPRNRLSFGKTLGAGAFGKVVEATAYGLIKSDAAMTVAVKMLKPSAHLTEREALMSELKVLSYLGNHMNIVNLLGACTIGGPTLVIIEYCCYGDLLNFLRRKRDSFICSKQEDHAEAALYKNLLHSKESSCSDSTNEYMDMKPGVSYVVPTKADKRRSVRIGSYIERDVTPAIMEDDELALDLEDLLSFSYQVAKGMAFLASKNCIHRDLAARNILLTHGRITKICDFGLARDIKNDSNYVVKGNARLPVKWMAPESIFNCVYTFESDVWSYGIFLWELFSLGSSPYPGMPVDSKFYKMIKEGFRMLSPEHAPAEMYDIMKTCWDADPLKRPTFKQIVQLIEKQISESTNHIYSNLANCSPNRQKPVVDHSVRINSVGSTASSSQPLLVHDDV
How it was run: as §1

kinases [4] = target: T4, kinases (Homo sapiens, UniProt P00533, L858R/T790M)
T4 construct: purchased Eurofins/DiscoveRx; host or cells: E. coli BL21-derived host (T7 phage display) for most kinases; HEK-293 for the rest
How it was run: as §1

kinases [5] = target: T5, kinases (Homo sapiens, UniProt P10721, V559D/V654A)
T5 construct: purchased Eurofins/DiscoveRx; host or cells: E. coli BL21-derived host (T7 phage display) for most kinases; HEK-293 for the rest
T5 sequence (P10721 26-976 V559D/V654A): as the sequence (P10721 26-976 V559D/T670I) above, with V629A, I645T counted along it
How it was run: as §1

[6] = 1 μM; target EGFR(L858R, T790M)

T1 sequence (P07949 29-1114 M918T): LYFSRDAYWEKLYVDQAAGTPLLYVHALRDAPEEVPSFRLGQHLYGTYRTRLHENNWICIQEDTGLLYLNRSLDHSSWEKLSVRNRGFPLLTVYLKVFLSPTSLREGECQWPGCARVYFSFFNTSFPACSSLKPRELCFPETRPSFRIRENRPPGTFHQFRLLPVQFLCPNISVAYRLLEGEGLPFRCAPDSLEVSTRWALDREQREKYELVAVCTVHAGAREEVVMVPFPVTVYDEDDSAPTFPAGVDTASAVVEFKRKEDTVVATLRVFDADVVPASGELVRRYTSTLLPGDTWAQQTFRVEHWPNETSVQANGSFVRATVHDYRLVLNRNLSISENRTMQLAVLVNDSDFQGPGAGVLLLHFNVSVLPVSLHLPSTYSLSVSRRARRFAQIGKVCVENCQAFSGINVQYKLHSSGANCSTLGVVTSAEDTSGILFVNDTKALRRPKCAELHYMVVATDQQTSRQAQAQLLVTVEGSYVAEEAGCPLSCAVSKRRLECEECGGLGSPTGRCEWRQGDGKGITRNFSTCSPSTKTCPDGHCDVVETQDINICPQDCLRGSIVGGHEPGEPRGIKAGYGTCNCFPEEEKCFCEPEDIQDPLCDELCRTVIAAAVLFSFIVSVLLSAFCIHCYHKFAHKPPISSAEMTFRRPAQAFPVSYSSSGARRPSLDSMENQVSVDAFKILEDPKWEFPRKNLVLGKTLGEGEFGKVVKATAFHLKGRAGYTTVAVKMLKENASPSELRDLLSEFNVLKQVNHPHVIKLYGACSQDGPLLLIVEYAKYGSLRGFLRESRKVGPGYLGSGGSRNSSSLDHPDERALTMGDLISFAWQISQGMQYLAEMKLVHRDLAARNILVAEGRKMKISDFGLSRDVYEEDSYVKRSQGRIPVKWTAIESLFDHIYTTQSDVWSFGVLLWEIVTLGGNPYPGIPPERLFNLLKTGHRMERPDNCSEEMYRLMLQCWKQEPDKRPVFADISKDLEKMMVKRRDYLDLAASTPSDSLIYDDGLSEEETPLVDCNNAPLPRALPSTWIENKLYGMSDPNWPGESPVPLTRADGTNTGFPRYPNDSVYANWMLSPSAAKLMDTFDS

SMILES	% Ctrl, RET(M918T) (kinases [1]; 1 μM; RET(M918T)) [% Ctrl]	% Ctrl, FLT3(N841I) (kinases [2]; 1 μM; FLT3(N841I)) [% Ctrl]	% Ctrl, KIT(V559D, T670I) (kinases [3]; 1 μM; KIT(V559D, T670I)) [% Ctrl]	% Ctrl, EGFR(L858R, T790M) (kinases [4]; 1 μM; EGFR(L858R, T790M)) [% Ctrl]	% Ctrl, KIT(V559D, V654A) (kinases [5]; 1 μM; KIT(V559D, V654A)) [% Ctrl]	% Ctrl, RET(M918T) (kinases [1]; 1 μM; target RET(M918T)) [% Ctrl]	% Ctrl, FLT3(N841I) (kinases [2]; 1 μM; target FLT3(N841I)) [% Ctrl]	% Ctrl, KIT(V559D, T670I) (kinases [3]; 1 μM; target KIT(V559D, T670I)) [% Ctrl]	% Ctrl, EGFR(L858R, T790M) (kinases [4]; [6]) [% Ctrl]	% Ctrl, KIT(V559D, V654A) (kinases [5]; 1 μM; target KIT(V559D, V654A)) [% Ctrl]	also measured
Cc1cc2c([nH]1)/C=C1\C(=O)Nc3ccc(cc31)CN(C)C(=O)COCCNC2=O [Ex.111, [17a(18)Z]-2,11-dimethyl-6,7,11,12-tetrahydro-1H-13,15-(ethanediylidene)dipyrrolo[3,2-f:3′,4′-i][1,4,14]oxadiazacyclohexadecine-4,10,17(5H,9H,16H)-trione]	76	14	96	97	62						
Cc1cc2c([nH]1)/C=C1\C(=O)Nc3ccc(cc31)-c1c(C)nn(C)c1COCCN(C)C2=O [Ex. 146, [3a(4)Z]-6,9,14,16-tetramethyl-10,11,13,14-tetrahydro-2H-1,17-(ethanediylidene)pyrazolo[4,3-m]dipyrrolo[3,2-f:3′,4′-i][1,4]oxazacyclopentadecine-3,8(5H,9H)-dione]											% Ctrl, RET(M918T) (kinases [1]; target RET(M918T); 1 μM): 27 % Ctrl; % Ctrl, FLT3(N841I) (kinases [2]; target FLT3(N841I); 1 μM): 0 % Ctrl; % Ctrl, KIT(V559D, T670I) (kinases [3]; target KIT(V559D, T670I); 1 μM): 75 % Ctrl; % Ctrl, EGFR(L858R, T790M) (kinases [4]; target EGFR(L858R, T790M); 1 μM): 43 % Ctrl; % Ctrl, KIT(V559D, V654A) (kinases [5]; target KIT(V559D, V654A); 1 μM): 97 % Ctrl
Cc1cc2c([nH]1)/C=C1\C(=O)Nc3cnc(nc31)N(C)CCCOCCN(C)C2=O [Ex.71, [17a(18)Z]-2,5,12-trimethyl-6,7,9,10,11,12-hexahydro-1H-13,15-(azenometheno)dipyrrolo[3,2-f:3′,4′-i][1,4,11,13]oxatriazacyclohexadecine-4,17(5H,16H)-dione]	91	75	100	100	100						
Cc1cc2c([nH]1)/C=C1\C(=O)Nc3ccc(cc31)OCCOCCN(C)C2=O [Ex.91, [16a(17)Z]-2,5-dimethyl-6,7,9,10-tetrahydro-1H-12,14-(ethanediylidene)dipyrrolo[3,2-i:3′,4′-l][1,4,7]dioxazacyclopentadecine-4,16(5H,15H)-dione]	7	0	34	58	8						
Cc1cc2c([nH]1)/C=C1\C(=O)Nc3ccc(cc31)-c1c(C)n[nH]c1CNCCN(C)C2=O [Ex. 127, [3a(4)Z]-6,9,16-trimethyl-9,10,11,12,13,14-hexahydro-1,17-(ethanediylidene)pyrazolo[4,3-m]dipyrrolo[3,2-f:3′,4′-i][1,4]diazacyclopentadecine-3,8(2H,5H)-dione]	2.1	0.35	62	2.3	89						
Cc1cc2c([nH]1)/C=C1\C(=O)Nc3ccc(cc31)-c1c(noc1C)COCCN(C)C2=O [Ex. 128, [3a(4)Z]-6,9,16-trimethyl-1,11-dihydro-2H,13H-1,17-(ethanediylidene)[1,4]oxazolo[4,3-m]dipyrrolo[3,2-f:3′,4′-i][1,4]oxazacyclopentadecine-3,8(5H,9H)-dione]	93	36	71	48	100						
Cc1cc2c([nH]1)/C=C1\C(=O)Nc3ccc(cc31)O[C@@H](C)COCCN(C)C2=O [Ex. 92, [10S,16a(17)Z]-2,5,10-trimethyl-6,7,9,10-tetrahydro-1H-12,14-(ethanediylidene)dipyrrolo[3,2-i:3′,4′-l][1,4,7]dioxazacyclopentadecine-4,16(5H,15H)-dione]	59	20	91	100	67						

Further lines, with some results ahead:

% Ctrl, RET(M918T) (kinases [1]; 1 μM; RET(M918T)) [% Ctrl]	% Ctrl, FLT3(N841I) (kinases [2]; 1 μM; FLT3(N841I)) [% Ctrl]	% Ctrl, KIT(V559D, T670I) (kinases [3]; 1 μM; KIT(V559D, T670I)) [% Ctrl]	% Ctrl, EGFR(L858R, T790M) (kinases [4]; 1 μM; EGFR(L858R, T790M)) [% Ctrl]	% Ctrl, KIT(V559D, V654A) (kinases [5]; 1 μM; KIT(V559D, V654A)) [% Ctrl]	% Ctrl, RET(M918T) (kinases [1]; 1 μM; target RET(M918T)) [% Ctrl]	% Ctrl, FLT3(N841I) (kinases [2]; 1 μM; target FLT3(N841I)) [% Ctrl]	% Ctrl, KIT(V559D, T670I) (kinases [3]; 1 μM; target KIT(V559D, T670I)) [% Ctrl]	% Ctrl, EGFR(L858R, T790M) (kinases [4]; [6]) [% Ctrl]	% Ctrl, KIT(V559D, V654A) (kinases [5]; 1 μM; target KIT(V559D, V654A)) [% Ctrl]	SMILES	also measured
					2.9	0	65	8.1	43	Cc1cc2c([nH]1)/C=C1\C(=O)Nc3ccc(cc31)-c1cnn(C)c1OCCCN(C)C2=O [Ex. 166, [3a(4)Z]-9,14-dimethyl-9,10,11,12-tetrahydro-14H-1,17-(ethanediylidene)pyrazolo[4,3-n]dipyrrolo[3,2-g:3′,4′-j][1,5]oxazacyclopentadecine-3,8(2H,5H)-dione]	
100	68	100	98	98						Cc1cc2c([nH]1)/C=C1\C(=O)Nc3ccc(cc31)OCCOCCNC2=O [Ex. 129, [16a(17)Z]-2-methyl-6,7,9,10-tetrahydro-1H-12,14-(ethanediylidene)dipyrrolo[3,2-i:3′,4′-l][1,4,7]dioxazacyclopentadecine-4,16(5H,15H)-dione]	
					92	39	95	96	87	Cc1cc2c([nH]1)/C=C1\C(=O)Nc3ccc(cc31)-c1c(noc1C(C)C)COCCN(C)C2=O [Ex. 161, [3a(4)Z]-9-methyl-16-(propan-2-yl)-10,11-dihydro-2H,13H-1,17-(ethanediylidene)[1,2]oxazolo[4,3-m]dipyrrolo[3,2-f:3′,4′-i][1,4]oxazacyclopentadecine-3,8(5H,9H)-dione]	
0	0	0.05	35	12						Cc1cc2c([nH]1)/C=C1\C(=O)Nc3cc(Cl)c(cc31)OCCOCCN(C)C2=O [Ex. 131, [16a(17)Z]-19-chloro-2,5-dimethyl-6,7,9,10-tetrahydro-1H-12,14-(ethanediylidene)dipyrrolo[3,2-i:3′,4′-l][1,4,7]dioxazacyclopentadecine-4,16(5H,15H)-dione]	
					0	0	2.4	80	27	CN1CCOc2cc3c(cc2Cl)NC(=O)/C3=C\c2[nH]ccc2C(=O)N(C)CC1 [Ex. 164, [16a(17)Z]-19-chloro-2,5,8-trimethyl-5,6,7,8,9,10-hexahydro-12,14-(ethanediylidene)dipyrrolo[3,2-i:3′,4′-l][1,4,7]oxadiazacyclopentadecine-4,16(1H,15H)-dione]	
					0.8	0	48	3.3	40	Cc1cc2c([nH]1)/C=C1\C(=O)Nc3cnc(cc31)-c1cnn(C)c1CN(C)CCN(C)C2=O [Ex. 172, [3a(4)Z]-6,9,12,14-tetramethyl-9,10,11,12,13,14-hexahydro-17,1-(azenometheno)pyrazolo[4,3-m]dipyrrolo[3,2-f:3′,4′-i][1,4]diazacyclopentadecine-3,8(2H,5H)-dione]	
					0	0	1.6	37	13	Cc1cc2c([nH]1)/C=C1\C(=O)Nc3cc(Cl)c(cc31)SCCOCCN(C)C2=O [Ex. 169, [16a(17)Z]-19-chloro-5-methyl-6,7,9,10-tetrahydro-1H-12,14-(ethanediylidene)dipyrrolo[3,4-g:2′,3′-j][1,4,13]oxathiazacyclopentadecine-4,16(5H,15H)-dione]	
